The values below come from patent publication US20240114902A1, “COMPOSITIONS AND METHODS FOR DETERRING OVIPOSITION BY FRUIT FLIES” (The United States of America, as represented by The …, priority 2022, published 2024).

In assay [1] the test system is Drosophila suzukii (SWD). The experiment in a line: SWD laboratory no-choice oviposition test on raspberries. It is filed as in vivo. The following applies: 20 mg CFA or 20 mg CFA equivalent dose, 24 hours. Here is the method:
Laboratory no-choice test The oviposition deterrence of the key-component blend determined from the “Laboratory choice test 2” described above (2c blend composed of C8:0 and C10:0; Table 2) was tested using a no-choice bioassay in Geneva, New York, USA using organic raspberries purchased from a local grocery and using 30 cm×30 cm×30 cm screened cages as described above. Each cage held four raspberries on a 10 cm diameter glass petri dish lined with filter paper and assigned to one of five treatments: 1) 20 mg of CFA/200 μL hexane/raspberry, 2) C8:0 at 20 mg CFA equivalent dose/200 μL hexane/raspberry, 3) C10:0 at 20 mg CFA equivalent dose/200 μL hexane/raspberry, 4) 2c blend at 20 mg CFA equivalent dose/200 μL hexane/raspberry, or 5) 200 μL of hexane control/raspberry (see Table 2 for equivalent doses). Twenty SWD females (5 days old) were released into each cage and allowed to oviposit on raspberries over 24 hours in an environmental chamber (25° C., 55% RH, 16:8 L:D). At the end of each trial, the raspberries were inspected under a dissecting microscope and the eggs were counted. The experiment was replicated eight times per treatment.

The next assay concerns non-SWD drosophilids. Description: Field test 2: sentinel raspberries in guava orchard, non-SWD drosophilids. In kind it is in vivo, D. immigrans, D. simulans, D. melanogaster. The following applies: 20 mg CFA or equivalent dose/raspberry, 2 days. On the procedure: (§1) Field test 2 The oviposition deterrence of the 2c key-component blend and its two individual components against SWD and non-SWD drosophilids was tested under field conditions. This experiment was conducted in a guava orchard (19° 36′33.6″N, 155° 04′ 12.6″W) located near Hilo, Hawaii. To monitor oviposition, four sentinel organic raspberries purchased from a local grocery were placed (receptacles stuffed with cotton) inside a deli cup (600 mL; Placon, Madison, Wisconsin, USA). Each cup had nine 1 cm diameter holes spaced 3 cm apart along the cup's circumference and 8.5 cm from the bottom, which allowed the drosophilids to enter the cup. The four raspberries in each cup were surface-treated with one of five treatments: 1) 2c blend at 20 mg CFA equivalent/200 μL hexane/raspberry, 2) C8:0 at 20 mg CFA equivalent/200 μL hexane/raspberry, 3) C10:0 at 20 mg CFA equivalent/200 μL hexane/raspberry, 4) CFA at 20 mg/200 μL hexane/raspberry, or 5) 200 μL of hexane control/raspberry. The deli-cup traps were hung in guava trees 1.5 m from the ground with at least 10 m spacing between adjacent traps. […] Raspberries were removed from the traps, placed in rearing cups (600 mL deli cup with organdy cap), held in environmental chamber (22.1±1.9° C., 71.7±3.1% RH, 16:8 L:D), and monitored over a 2-week period. All emerged adults were counted and identified as SWD or non-SWD drosophilids. […]

The subject of a further assay is Bactrocera dorsalis. Description: B. dorsalis spatial deterrence, two-choice traps baited with guava juice. It is filed as in vivo. Particulars: tested individually. On the procedure: In addition to CFA, a series of odd-numbered carbon fatty acids (C9:0 to C17:0) and fatty acid methyl esters were evaluated for the spatial deterrence to B. dorsalis that results in oviposition reduction. Table 3 below lists the fatty acid methyl esters tested for spatial repellency for Bactrocera dorsalis. […] FIG. 16A, FIG. 16C, FIG. 16E, FIG. 16G, FIG. 16I, FIG. 16K, FIG. 16M, FIG. 16O, FIG. 16Q, and FIG. 16S show the mean numbers (±SEM) of mated female B. dorsalis flies captured, and FIG. 16B, FIG. 16D, FIG. 16F, FIG. 16H, FIG. 16J, FIG. 16L, FIG. 16N, FIG. 16P, FIG. 16R, and FIG. 16T show the number of B. dorsalis eggs oviposited in traps baited with guava juice (control) and with guava juice plus one of the coconut fatty acid methyl ester compounds in two-choice bioassays. For each test, different letter on the bar indicate a significant difference by Tukey-Kramer tests at P<0.05, n=4.

The subject of another assay is Zeugodacus cucurbitae. Description: Z. cucurbitae two-choice oviposition bioassay on pumpkin juice-infused agar. In kind it is in vivo. Details: key to Behavioral activity (Z. cucurbitae oviposition group): Negative: “negative” (i.e., oviposition reduced); Neutral: “neutral” (i.e., no effect on oviposition); Positive: “positive” (i.e., oviposition increased). Particulars: for Behavioral activity (Z. cucurbitae oviposition group): individual CFFA component; for Z. cucurbitae oviposition reduction vs control agar: individual compound, 20 mg dose. Here is the method:
Oviposition bioassays were conducted with mated female flies, using pumpkin juice-infused agar as an oviposition substrate. A small petri dish (60×15 mm) filled with 10 mL of 1% agar mixed in pumpkin juice was used as an oviposition substrate. The agar plates were surface-treated either with 200 μL of ethanol or 200 μL of CFFA in one of 4 doses tested (20, 2, 0.2, and 0.02 mg/200 μL of ethanol), placed into a fume hood for 10 minutes for solvent evaporation prior to use in bioassays, and positioned upside-down (i.e. treated side down) on top of the 30×30×30 cm (W×L×H) screened cage 17 cm apart from each other (i.e. one each of control and CFFA treated), allowing 20 female flies (14 to 18 day-old) to oviposit on pumpkin juice agar from the bottom through the cage screen for 24 hours. Each cage was provided with a ball of water-saturated cotton, sugar, and protein hydrolysate in separate 30 mL deli cups and two oviposition substrates-one treated with CFFA diluted in ethanol and the other treated with the ethanol control. After 24 hours, Z. cucurbitae eggs in the pumpkin agar were gently separated from the agar in water and the number of eggs were individually counted. The experiment was replicated five times per treatment. CFFA was not an effective oviposition deterrent for Z. cucurbitae which is contrary to our previous work on B. dorsalis (Roh et al., 2023a). […] CFFA components were categorized into three groups “negative” (i.e., oviposition reduced), “neutral” (i.e., no effect on oviposition), and “positive” (i.e., oviposition increased) based on bioassay outcome. Using these categories, further formulations were made to determine key bioactive CFFA components in terms of oviposition deterrence on Z. cucurbitae at the equivalent ratios and concentrations of each component found in CFFA (Zhu et al. 2018). The approach involved testing the bioactivity of the negative-component blend (4c blend) for oviposition deterrence at three different doses (2, 0.2, and 0.02 mg CFFA equivalent/agar), compared with ethanol control. Further, neutral compound is added to the negative blend i.e., ‘negative+neutral’ component blend (5c blend) to identify key compounds for oviposition deterrence. The experiment was replicated five times per treatment.

The subject of assay [2] is Drosophila suzukii (SWD). Description: Field test 2: sentinel raspberries in guava orchard, SWD adults emerged. In kind it is in vivo. The following applies: 20 mg CFA equivalent/raspberry, total over replicates. On the procedure: as §1

Regarding `CCCCCCCC(=O)O` [C8:0, caprylic acid], in the assay with Drosophila suzukii (SWD) [1], the “effect on SWD oviposition vs solvent control” value is reported as “significantly reduced SWD oviposition”. Besides, the “effect on oviposition from resident (non-SWD) drosophilids” value in the assay on non-SWD drosophilids was “not effective”. For the same molecule, in the assay on Bactrocera dorsalis, the “effect on female B. dorsalis attraction and oviposition to host fruit odors” value was “significantly reduced”. Besides, the “effect on Z. cucurbitae oviposition” value is “not” in the assay on Zeugodacus cucurbitae (0.02 mg dose), “maintained oviposition deterrence” in the assay with Zeugodacus cucurbitae (0.2 mg dose) and “maintained oviposition deterrence” with Zeugodacus cucurbitae (2 mg dose). Further, in the assay with Zeugodacus cucurbitae, the “Behavioral activity (Z. cucurbitae oviposition group)” value is “Negative”. The “Z. cucurbitae oviposition reduction vs control agar” value in the assay on Zeugodacus cucurbitae is 100%.

Consider `CCCCCCCCCC(=O)O` [C10:0, capric acid], for which the “effect on SWD oviposition vs solvent control” value with Drosophila suzukii (SWD) [1] was “significantly reduced SWD oviposition”. The “effect on oviposition from resident (non-SWD) drosophilids” value with non-SWD drosophilids is reported as “not effective”. Further, the “SWD adults emerging from treated raspberries” value with Drosophila suzukii (SWD) [2] is 2 SWD. Moreover, in the assay with Zeugodacus cucurbitae (2 mg dose), the “effect on Z. cucurbitae oviposition” value is “either lost oviposition deterrence or increased oviposition”. For the same molecule, in the assay with Zeugodacus cucurbitae, the “Behavioral activity (Z. cucurbitae oviposition group)” value is “Negative” and the “Z. cucurbitae oviposition reduction vs control agar” value stood at 74%.
